19 compounds from US7531539B2, “Pyrrolotriazine kinase inhibitors” (Bristol-Myers Squibb Company, priority 2006, dated 2009) can be followed below.

What all share (assay type): biochemical
In assay [1] the target is T1, kinase domain of the human TrkA receptor (Homo sapiens, UniProt P04629).
T1 construct: The kinase domain of the human TrkA receptor is expressed in Sf9 insect cells as a histidine (His)-fusion protein; His; made in house; host or cells: Sf9 insect cells (baculovirus)
Put plainly: TrkA tyrosine kinase assay (33P, polyGluTyr substrate). Particulars: 30 uM ATP, 0.1 mg/ml PGT. From the text:
The ability of compounds of the present invention to inhibit tyrosine kinase activity of TrkA may be measured using a recombinant enzyme in an assay that measures the ability of compounds to inhibit the phosphorylation of the exogenous substrate, polyGluTyr (PGT, 4:1). The kinase domain of the human TrkA receptor is expressed in Sf9 insect cells as a histidine (His)-fusion protein using a baculovirus expression system. The protein is purified from the lysates of these cells using an Ni—NTA affinity column. After the recombinant enzyme is purified, it is activated by incubation with cold ATP. The enzyme assay is performed in a 96-well plate. Test compounds are first dissolved in dimethylsulfoxide (DMSO) and then serially-diluted in a 96-well plate. The serially-diluted compounds are transferred to the 96-well assay plate so that the final concentration of DMSO in the enzyme assay is 1.64%. All assay components are diluted in phosphorylation buffer (20 mm MOPS, 10 mM MgCl2, 1 mM EDTA, 0.015% Brij-35, […], 0.0025% Beta-Mercaptoethanol). The recombinant enzyme is added to the assay plate containing test compound and the reaction is initiated with a substrate solution containing a final concentration of 0.1 mg/ml PGT, 30 uM ATP, and 0.008 mCi/ml ^33P-gammaATP (3000 Ci/mmol). After a 1 hour incubation at 30° C., the reaction is terminated with 10% TCA and incubated at 4° C. for 1 hour. The reaction is filtered onto a Unifilter® GF/C™ filter plate that has been presoaked with 0.1M NaPyrophosphate. Microscint-20 is then added to the dried filter plate and the captured ^33P-phosphorylated PGT is quantitated on a microscintillation plate counter (TopCount.NXT™). Inhibition of the kinase enzymatic activity by the test compound is detected by a reduction in scintillation, and the concentration of compound that is required to inhibit the signal by 50% is reported as the IC50 value for the test compound.
(§1) Compounds described herein were tested in the TrkA and TrkB assays described above.

The target of assay [2] is T2, kinase domain of the human TrkB receptor (amino acids 526-838) (Homo sapiens, UniProt Q16620).
T2 construct: human TrkB receptor (amino acids 526-838); His; purchased Invitrogen; host or cells: insect cells
The assay is described as follows: TrkB tyrosine kinase assay (33P, polyGluTyr substrate). Particulars: 30 uM ATP, 0.1 mg/ml PGT. How it is done:
The ability of compounds of the present invention to inhibit tyrosine kinase activity of TrkB may be measured using a recombinant enzyme in an assay that measures the ability of compounds to inhibit the phosphorylation of the exogenous substrate, polyGluTyr (PGT, 4:1). The kinase domain of the human TrkB receptor (amino acids 526-838) is expressed in insect cells as a histidine (His)-fusion protein and is commercially available from Invitrogen™. The enzyme assay is performed in a 96-well plate. Test compounds are first dissolved in dimethylsulfoxide (DMSO) and then serially-diluted in a 96-well plate. The serially-diluted compounds are transferred to the 96-well assay plate so that the final concentration of DMSO in the enzyme assay is 1.64%. All assay components are diluted in phosphorylation buffer (20 mm MOPS, 10 mM MgCl2, 1 mM EDTA, 0.015% Brij-35, 0.1 mg/ml BSA, 0.0025% Beta-Mercaptoethanol). The recombinant enzyme is added to the assay plate containing test compound and the reaction is initiated with a substrate solution containing a final concentration of 0.1 mg/ml PGT, 30 uM ATP, and 0.008 mCi/ml ^33P-gammaATP (3000 Ci/mmol). After a 1 hour incubation at 30° C., the reaction is terminated with 10% TCA and incubated at 4° C. for 1 hour. The reaction is filtered onto a Unifilter® GF/C™ filter plate that has been pre-soaked with 0.1M NaPyrophosphate. Microscint-20 is then added to the dried filter plate and the captured ^33P-phosphorylated PGT is quantitated on a microscintillation plate counter (TopCount.NXT™). Inhibition of the kinase enzymatic activity by the test compound is detected by a reduction in scintillation, and the concentration of compound that is required to inhibit the signal by 50% is reported as the IC50 value for the test compound.
as §1

In assay [3] the target is Casein Kinase 2 A1 kinase (Homo sapiens, UniProt P68400). The assay is described as follows: CK2A1 kinase assay (33P, TCA precipitation). As for the experimental part:
(§2) Incubation mixtures employed for the Casein Kinase 2 A1 kinase assay contain Casecin Kinase 2 A1 kinase, a synthetic peptide substrate, ATP, ATP-γ-^33 P and a Hepes buffer containing Mg^2+, NaCl, DTT, and Brij-35. Reactions were incubated for 60 minutes at 30° C. and stopped by the addition of trichloroacetic acid (TCA) to a final concentration 8%. TCA precipitates were collected onto GF/C unifilter plates using a Filtermate universal harvester and the filters are quantitated using a TopCount 96/384-well liquid scintillation counter. Dose response curves were generated to determine the concentration required to inhibit 50% of kinase activity (IC50). Compounds were dissolved at 10 mM in dimethyl sulfoxide (DMSO) and evaluated at ten concentrations, each in duplicate. The final concentration of DMSO in the assay is 1.7%. IC50 values were derived by non-linear regression.

The target of assay [4] is Casein Kinase 2 A2 kinase (Homo sapiens, UniProt P19784). The assay is described as follows: CK2A2 kinase assay (33P, TCA precipitation). As for the experimental part: as §2, with “A2” for “A1”, “Casein” for “Casecin”, “ATP-γ^33P” for “ATP-γ-^33 P”, “Mg^++,” for “Mg^2+,”, “(IC^50).” for “(IC50).”
Chain of Casein Kinase 2 A2 kinase (P19784 whole entry): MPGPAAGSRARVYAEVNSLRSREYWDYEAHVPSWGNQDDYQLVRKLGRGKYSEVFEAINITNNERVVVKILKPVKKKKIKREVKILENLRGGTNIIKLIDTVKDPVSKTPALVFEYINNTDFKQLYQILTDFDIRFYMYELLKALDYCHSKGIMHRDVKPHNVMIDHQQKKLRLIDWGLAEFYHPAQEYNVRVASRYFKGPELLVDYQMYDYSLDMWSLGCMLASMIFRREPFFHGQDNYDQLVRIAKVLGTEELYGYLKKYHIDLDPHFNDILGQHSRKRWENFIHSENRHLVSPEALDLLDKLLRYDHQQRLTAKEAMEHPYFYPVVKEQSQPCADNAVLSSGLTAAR

T2 sequence (Q16620 510-822): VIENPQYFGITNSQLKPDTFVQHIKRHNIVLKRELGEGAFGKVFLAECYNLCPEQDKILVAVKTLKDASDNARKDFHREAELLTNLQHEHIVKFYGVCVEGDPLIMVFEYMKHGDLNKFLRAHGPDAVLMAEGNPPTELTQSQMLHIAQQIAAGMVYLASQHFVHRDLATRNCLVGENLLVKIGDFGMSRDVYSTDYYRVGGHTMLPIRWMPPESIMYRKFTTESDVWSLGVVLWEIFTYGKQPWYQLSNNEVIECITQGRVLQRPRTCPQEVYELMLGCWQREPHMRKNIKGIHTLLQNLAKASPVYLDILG
T1 sequence (P04629 510-781 limits assumed): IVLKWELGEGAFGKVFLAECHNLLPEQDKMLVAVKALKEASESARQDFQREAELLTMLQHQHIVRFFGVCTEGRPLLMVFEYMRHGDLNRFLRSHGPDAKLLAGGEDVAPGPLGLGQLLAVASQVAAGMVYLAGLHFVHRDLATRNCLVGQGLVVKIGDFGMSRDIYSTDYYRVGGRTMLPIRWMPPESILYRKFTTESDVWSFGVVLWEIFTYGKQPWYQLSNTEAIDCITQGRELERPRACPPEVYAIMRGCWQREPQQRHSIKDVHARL
Chain of Casein Kinase 2 A1 kinase (P68400 whole entry): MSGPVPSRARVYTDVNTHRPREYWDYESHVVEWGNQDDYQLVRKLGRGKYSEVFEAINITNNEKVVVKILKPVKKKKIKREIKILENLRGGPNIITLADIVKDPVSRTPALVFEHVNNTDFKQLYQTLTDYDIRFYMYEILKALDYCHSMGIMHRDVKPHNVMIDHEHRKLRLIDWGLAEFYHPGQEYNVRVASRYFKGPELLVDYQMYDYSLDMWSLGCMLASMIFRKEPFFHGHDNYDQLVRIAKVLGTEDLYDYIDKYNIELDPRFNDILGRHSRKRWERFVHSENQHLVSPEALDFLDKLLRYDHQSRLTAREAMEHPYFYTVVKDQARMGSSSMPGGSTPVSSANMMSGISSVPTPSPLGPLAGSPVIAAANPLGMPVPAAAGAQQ

For `N#CCC(=O)NC1CCN(c2nc(Nc3cc(C4CC4)n[nH]3)c3cccn3n2)CC1` [Example 39, 2-cyano-N-(1-(4-((3-cyclopropyl-1H-pyrazol-5-yl)amino)pyrrolo[2,1-f][1,2,4]triazin-2-yl)-4-piperidinyl)acetamide], the IC50 (in general, the concentration at which inhibition is half-maximal) turned out to be 1 nM in assay [1] and 0.7 nM in assay [2].
For the compound `c1cncc(C2CCN(c3nc(Nc4cc(C5CC5)n[nH]4)c4cccn4n3)C2)c1` (centres unmarked) [Example 181, N-(3-cyclopropyl-1H-pyrazol-5-yl)-2-(3-(pyridin-3-yl)pyrrolidin-1-yl)pyrrolo[1,2-f][1,2,4]triazin-4-amine], the IC50 in assay [3] is 84 nM; in assay [4] it was 6 nM.
In the same order, the values of `Cc1cc(Nc2nc(N3CCC(c4ccccc4)C3)nn3cccc23)[nH]n1` (centres unmarked) [Example 186, N-(5-methyl-1H-pyrazol-3-yl)-2-(3-phenylpyrrolidin-1-yl)pyrrolo[1,2-f][1,2,4]triazin-4-amine] are 294 nM and 39 nM.
With `NCC1CCN(c2nc(Nc3cc(-c4ccccc4)n[nH]3)c3cccn3n2)CC1` [Example 97, 2-(4-(aminomethyl)-1-piperidinyl)-N-(3-phenyl-1H-pyrazol-5-yl)pyrrolo[2,1-f][1,2,4]triazin-4-amine], the IC50 in assay [1] is 24 nM; in assay [2] it was 48 nM.
Consider `Cc1cc(Nc2nc(N3CCOCC3)nn3cccc23)[nH]n1` [Example 95, N-(3-methyl-1H-pyrazol-5-yl)-2-(4-morpholinyl)pyrrolo [2,1-f][1,2,4]triazin-4-amine], for which the IC50 in assay [1] was found to be 23 nM; in assay [2] it was 49 nM.
Consider `c1ccc(C2CCN(c3nc(Nc4cc(C5CC5)n[nH]4)c4cccn4n3)C2)cc1` (centres unmarked) [Example 184, N-(3-cyclopropyl-1H-pyrazol-5-yl)-2-(3-phenylpyrrolidin-1-yl)pyrrolo[1,2-f][1,2,4]triazin-4-amine], for which the IC50 worked out at 177 nM in assay [3] and 14 nM in assay [4].
Regarding `NC1CCN(c2nc(Nc3ccn[nH]3)c3cccn3n2)CC1` [Example 4, 2-(4-amino-1-piperidinyl)-N-1H-pyrazol-5-ylpyrrolo[2,1-f][1,2,4]triazin-4-amine], the IC50 is 123 nM in assay [1] and 312 nM in assay [2].
With `NC1CCN(c2nc(Nc3cc(C4CC4)n[nH]3)c3cccn3n2)CC1` [Example 3, 2-(4-amino-1-piperidinyl)-N-(3-cyclopropyl-1H-pyrazol-5-yl)pyrrolo[2,1-f][1,2,4]triazin-4-amine], the half-maximal inhibitory concentration (IC50) in assay [1] worked out at 0.6 nM; in assay [2] it was 2 nM.
In the case of `c1ccc(CNC2CCN(c3nc(Nc4cc(C5CC5)n[nH]4)c4cccn4n3)CC2)cc1` [Example 8, 2-(4-(benzylamino)-1-piperidinyl)-N-(3-cyclopropyl-1H-pyrazol-5-yl)pyrrolo[2,1-f][1,2,4]triazin-4-amine], the IC50 in assay [1] and in assay [2] was 0.3 nM throughout.
In the case of `CC(C)(C)c1cc(Nc2nc(N3CCC(N)CC3)nn3cccc23)[nH]n1` [Example 21, 2-(4-amino-1-piperidinyl)-N-(3-tert-butyl-1H-pyrazol-5-yl)pyrrolo[2,1-f][1,2,4]triazin-4-amine], the IC50 in assay [1] was determined as 56 nM; in assay [2], 86 nM.
`O=C(Cc1cccs1)NC1CCN(c2nc(Nc3cc(C4CC4)n[nH]3)c3cccn3n2)CC1` [Example 49, N-(1-(4-((3-cyclopropyl-1H-pyrazol-5-yl)amino)pyrrolo[2,1-f][1,2,4]triazin-2-yl)-4-piperidinyl)-2-(2-thienyl)acetamide]: the IC50 in assay [1] worked out at 0.9 nM; in assay [2], 0.6 nM.
In the same order, the values of `N[C@H]1CCN(c2nc(Nc3cc(C4CC4)n[nH]3)c3cccn3n2)C1` [Example 91] are 5 nM and 10 nM.
With `Cc1cc(Nc2nc(N3CCNCC3)nn3cccc23)n[nH]1` [Example 74, N-(5-methyl-1H-pyrazol-3-yl)-2-(1-piperazinyl)pyrrolo[2,1-f][1,2,4]triazin-4-amine], the results for the IC50 in assay [1] and in assay [2] were 120 nM and 195 nM, respectively.
`C[C@H]1C[C@@H]1c1cc(Nc2nc(N3CCC(N)CC3)nn3cccc23)[nH]n1` [Example 18, 2-(4-amino-1-piperidinyl)-N-(3-((1S,2S)-2-methylcyclopropyl)-1H-pyrazol-5-yl)pyrrolo[2,1-f][1,2,4]triazin-4-amine]: the values for the IC50 in assay [1] and in assay [2] were 0.8 nM and 1 nM, respectively.
Regarding `CCC(C)c1cc(Nc2nc(N3CCC(N)CC3)nn3cccc23)[nH]n1` (centres unmarked) [Example 19, 2-(4-amino-1-piperidinyl)-N-(3-sec-butyl-1H-pyrazol-5-yl)pyrrolo[2,1-f][1,2,4]triazin-4-amine], the IC50 in assay [1] stood at 9 nM; in assay [2] it was 20 nM.
Consider `Cc1cc(Nc2nc(N3CC[C@@H](O)C3)nn3cccc23)n[nH]1` [Example 70, (3R)-1-(4-((5-methyl-1H-pyrazol-3-yl)amino)pyrrolo[2,1-f][1,2,4]triazin-2-yl)-3-pyrrolidinol], for which the IC50 was determined as 23 nM in assay [1] and 38 nM in assay [2].
For `Cc1cc(Nc2nc(N3CCCC3)nn3cccc23)n[nH]1` [Example 75, N-(5-methyl-1H-pyrazol-3-yl)-2-(1-pyrrolidinyl)pyrrolo[2,1-f][1,2,4]triazin-4-amine], the IC50 is 5 nM in assay [1] and 9 nM in assay [2].
As for `NC1CCN(c2nc(Nc3cc(OCC4CC4)n[nH]3)c3cccn3n2)CC1` [Example 14, 2-(4-amino-1-piperidinyl)-N-(3-(cyclopropylmethoxy)-1H-pyrazol-5-yl)pyrrolo[2,1-f][1,2,4]triazin-4-amine], the IC50 was found to be 1 nM in assay [1] and 3 nM in assay [2].
Consider `O=C(CCc1ccccc1)NC1CCN(c2nc(Nc3cc(C4CC4)n[nH]3)c3cccn3n2)CC1` [Example 43, N-(1-(4-((3-cyclopropyl-1H-pyrazol-5-yl)amino)pyrrolo[2,1-f][1,2,4]triazin-2-yl)-4-piperidinyl)-3-phenylpropanamide], for which the IC50 in assay [1] is 0.4 nM; in assay [2], 0.5 nM.
